Assay results published in patent US8604003B2, “Promoter for hard tissue formation” (Seikagaku Corporation, priority 2005, dated 2013).
“Also recorded” adds a separate entry of the source.

Assays:
cell strain MC3T3-E1 [1] = test: Cellular ALP activity (Bessey-Lowry method), 2% FBS-containing αMEM; type: cell-based, mouse; details: 50 μg/ml sample, first week after confluence, vs control without sample (FIG. 1, FIG. 2)
Protocol: (§1) A mouse bone marrow-derived mesenchymal cell strain, ST2 cell strain, and a mouse osteoblast-like cell strain having more high differentiation degree, MC3T3-E1 cell strain, (both obtained from RIKEN CELL BANK), were used. In the following, culturing of these cells was carried out all under a condition of 37° C. and 5% CO2. Additionally, antibiotics (100 U/ml in final concentration of penicillin G, 100 μg/ml in final concentration of streptomycin and 250 μg/ml in final concentration of gentamicin) were allowed to coexist in all of the media to be used for the culturing of these cells.
(§2) Cellular ALP activity was measured as the index of cell differentiation. Cells were inoculated onto a 24 well culture plate at a density of 5×10^3 cells/well and cultured by adding 50 μg/ml in final concentration of each sample to 2% FBS-containing αMEM. On the first week after the cells reached confluent, ALP activity was measured by the following enzymologic method (Bessey-Lowry method).
(§3) After washing the cultured cells with PBS, the cells were disrupted and stirred for 40 seconds in 10 mM Tris-HCl buffer (pH 7.4, 500 μl) using an ultra sonic homogenizer (Handy Sonic model UR-20P; mfd. by Tomy Seiko Co., Ltd.). Next, 25 μl of the sample liquid was added to 125 μl of an ALP buffer (0.1M carbonate buffer pH 9.8, 6.7 mM p-nitrophenyl phosphate, 2 mM MgCl2) and incubated at 37° C. for 30 minutes. After terminating the reaction by adding 125 μL of 0.2 N NaOH, the absorbance at 405 nm was measured by using a microplate reader (Model 550, manufactured by Bio-Rad Laboratories). The calculated ALP activity was shown by unit per the number of cells. Additionally, a case in which the sample to be tested was not added was used as a control.
(§4) The results in which each sample to be tested was added to the cell strain MC3T3-E1 are shown in FIG. 1, and the results in which a sample to be tested (Hep, 2DSH, 6DSH or NDSH) was added to the cell strain MC3T3-E1 are shown in FIG. 2, and the results in which a sample to be tested (Hep, 2DSH, 6DSH or NDSH) was added to the cell strain ST2 are shown in FIG. 3, respectively.

cell strain ST2 [2] = test: as above; type: cell-based, mouse; details: 50 μg/ml sample, first week after confluence, vs control without sample (FIG. 3)
Protocol: as §1, §2, §3, §4

cell strain MC3T3-E1 [3] = test: Cellular ALP activity, serum-free medium; type: cell-based, mouse; details: 50 μg/ml sample, serum-free medium (FIG. 4)
Protocol: as §1
(§5) Cellular ALP activity was measured as the index of cell differentiation. […] On the first week after the cells reached confluent, ALP activity was measured by the following enzymologic method (Bessey-Lowry method).
as §3
(§6) The results of adding each sample to be tested (Hep, 2DSH, 6DSH or NDSH) to the cell strain MC3T3-E1 are shown in FIG. 4, and the results of adding each sample to be tested (Hep, 2DSH, 6DSH or NDSH) to the cell strain ST2 are shown in FIG. 5, respectively. In this connection, the calculated ALP activity was shown by a numerical value of cells per DNA weight.

cell strain ST2 [4] = test: Cellular ALP activity, serum-free medium; type: cell-based, mouse; details: 50 μg/ml sample, serum-free medium (FIG. 5)
Protocol: as §1, §5, §3, §6

cell strain MC3T3-E1 [5] = test: Calcification ability, alizarin staining; type: cell-based, mouse; details: MC3T3-E1, 50 μg/ml sample, first week after confluence
Protocol: as §2
(§7) In order to examine calcification ability of the cells, alizarin staining (ALZ staining; stained in red indicates accelerated calcification) was carried out in accordance with the usual way, in the aforementioned “Actions on cell differentiation (1)” on the first week after the cells reached confluent. The cells were washed with PBS, fixed with 10 neutral-buffered formalin and then stained with 0.01 Alizarin Red S (manufactured by Wako Pure Chemical Industries).

cell strain ST2 [6] = test: Calcification ability, alizarin staining; type: cell-based, mouse; details: ST2, 50 μg/ml sample, first week after confluence
Protocol: as §2, §7

Wistar rat [7] = test: Transplantation under the cranial periosteum on hydroxyapatite carrier, HE staining, formation of hard tissue (bone); type: in vivo; details: 3 mg/ml sample on hydroxyapatite under cranial periosteum, fourth and eighth week
Protocol: (§8) A Wistar rat of 8 weeks of age was subjected to general anesthesia with ethyl carbamate 20 solution at a dose of 0.5 ml per 100 g body weight, and then the forehead skin and periosteum were incised. Each sample to be tested (Hep, 2DSH, 6DSH or NDSH; 100 μl for each) diluted to a concentration of 3 mg/ml with PBS was transplanted under the cranial periosteum. In this case, hydroxyapatite was used as the carrier.
(§9) Specifically, a block of hydroxyapatite (size: 3 mm in length×2 mm in breadth×2 mm in height; adsorbs about 0.1 ml of solution) was soaked for 30 minutes in each sample to be tested of a concentration of 3 mg/ml. It was used for the transplantation.
A substance in which test sample-free PBS was used was used as the control.
Each animal was sacrificed on the fourth week and eighth week after transplantation of the sample to be tested. Then slices of the transplanted parts were prepared and subjected to hematoxylin-eosin staining (HE staining). It was observed under an optical microscope to evaluate degree of the formation of a hard tissue (bone).

Wistar rat [8] = test: Transplantation under the cranial periosteum, ratio of area of formed bone to hydroxyapatite region (image analysis); type: in vivo; details: 3 mg/ml sample on hydroxyapatite, fourth week and sixth week (FIG. 6)
Protocol: as §8, §9
In the same manner as in the aforementioned “5. Actions on cell differentiation (5)”, slices of the transplanted parts were prepared by sacrificing each animal on the fourth week and sixth week after transplantation of the sample to be tested (n=2 for each group). Ratio of the area of formed bone (hard tissue) to the area of the hydroxyapatite region observed in the image of said slice was analyzed by using an image analyzing software (Scion image; Scion Corporation).

Wistar rat [9] = test: Transplantation under the cranial periosteum, ratio of area of bone tissue to total tissues (image analysis); type: in vivo; details: 3 mg/ml sample on hydroxyapatite, fourth, eighth and twelfth week (FIG. 7)
Protocol: as §8, §9
In the same manner as in the aforementioned “5. Actions on cell differentiation (5)”, slices of the transplanted parts were prepared by sacrificing each animal on the fourth week, eighth week and twelfth week after transplantation of the sample to be tested (n=5 for each group). Ratio of the area of bone tissue to the area of the total tissues observed in the image of the slices of transplanted region was analyzed using an image analyzing software (Scion image; Scion Corporation). In this connection, the bars of respective weeks in FIG. 7 show the results in the control group, 2DSH group, 6DSH group, NDSH group and Hep group, respectively, starting from the left side.

cell strain MC3T3-E1 [10] = test: Actions on cell growth, cell number by Coulter counter; type: cell-based, mouse; details: 50 μg/ml sample, αMEM containing 2% FBS, days 0, 1, 3, 6 (FIG. 8)
Protocol: (§10) Respective cells were inoculated onto a 24 well culture plate (manufactured by Falcon) in 5×10^3 cells/well portions. Starting on the first day after the inoculation, each sample to be tested (Hep, 2DSH, 6DSH or NDSH) was added to the culture liquid (αMEM containing 2% FBS) to a final concentration of 50 μg/ml. On the zero day, first day, third day and sixth day after addition of the sample to be tested, the number of cells was counted using a Coulter counter (COULTER Z1, manufactured by Coulter Electronics Inc.). A case in which the sample to be tested was not added was used as the control.

cell strain ST2 [11] = test: as above; type: cell-based, mouse; details: 50 μg/ml sample, αMEM containing 2% FBS, days 0, 1, 3, 6 (FIG. 9)
Protocol: as §10

Row | Substance | ALP activity of the cell strain MC3T3-E1 (cell strain MC3T3-E1 [1]) | ALP activity of the cell strain ST2 (cell strain ST2 [2]) | ALP activity of the cell strain MC3T3-E1 under the serum-free condition (cell strain MC3T3-E1 [3]) | ALP activity of the cell strain ST2 under the serum-free condition (cell strain ST2 [4]) | formation of calcification matter (alizarin staining) (cell strain MC3T3-E1 [5]) | formation of calcification matter (alizarin staining) (cell strain ST2 [6]) | formation of bone (HE staining, optical microscope) (Wistar rat [7]) | ratio of the area of formed bone (hard tissue) to the area of the hydroxyapatite region (Wistar rat [8]) | ratio of the area of bone tissue to the area of the total tissues (Wistar rat [9]) | growth of the cell strain MC3T3-E1 (number of cells) (cell strain MC3T3-E1 [10]) | growth of the cell strain ST2 (number of cells) (cell strain ST2 [11])
1 | 2-O-desulfated heparin [2DSH] | increased the ALP activity | increased the ALP activity | increased the ALP activity; also recorded: particularly effective | increased the ALP activity; also recorded: particularly effective | accelerated formation of calcification matter | accelerated formation of calcification matter; also recorded: strong acceleration | formation of bone was observed; also recorded: Remarkable bone formation | formation of bone (hard tissue) was confirmed within a broad range; also recorded: remarkable | formation of bone (hard tissue) was confirmed within a broad range; also recorded: remarkable | small in comparison with that of Hep; also recorded: suppress growth | accelerated growth
2 | 6-O-desulfated heparin [6DSH] | increased the ALP activity | increased the ALP activity | increased the ALP activity | increased the ALP activity | accelerated formation of calcification matter | accelerated formation of calcification matter | formation of bone was observed | formation of bone (hard tissue) was confirmed within a broad range | formation of bone (hard tissue) was confirmed within a broad range | small in comparison with that of Hep; also recorded: suppress growth | 
3 | N-desulfated heparin [NDSH] | increased the ALP activity | increased the ALP activity; also recorded: particularly effective | increased the ALP activity; also recorded: particularly effective | increased the ALP activity | accelerated formation of calcification matter | accelerated formation of calcification matter; also recorded: strong acceleration | formation of bone was observed | formation of bone (hard tissue) was confirmed within a broad range; also recorded: remarkable | formation of bone (hard tissue) was confirmed within a broad range; also recorded: remarkable | small in comparison with that of Hep; also recorded: suppress growth | 
4 | heparin [reference compound] | increased the ALP activity; also recorded: particularly effective | increased the ALP activity | increased the ALP activity; also recorded: particularly effective | increased the ALP activity | accelerated formation of calcification matter | accelerated formation of calcification matter; also recorded: strong acceleration | formation of bone was observed | formation of bone (hard tissue) was confirmed within a broad range | formation of bone (hard tissue) was confirmed within a broad range; also recorded: remarkable | suppress growth | suppressed it
